US12116358B2, “Substituted indoles and methods of use thereof” (EPIZYME, INC., priority 2018, dated 2024)
Like-named read-outs stand apart in the source and are kept apart here.

How the values were obtained:
SETD2(1434-1711) = biological target: T1, SETD2(1434-1711) (Homo sapiens, UniProt Q9BYW2); experiment: SETD2 (1434-1711) assay; format: biochemical; details: read-out: SETD2 (1434-1711)
T1 construct: SETD2 (1434-1711) Assay; catalogue N/A
T1 sequence (Q9BYW2 1434-1711): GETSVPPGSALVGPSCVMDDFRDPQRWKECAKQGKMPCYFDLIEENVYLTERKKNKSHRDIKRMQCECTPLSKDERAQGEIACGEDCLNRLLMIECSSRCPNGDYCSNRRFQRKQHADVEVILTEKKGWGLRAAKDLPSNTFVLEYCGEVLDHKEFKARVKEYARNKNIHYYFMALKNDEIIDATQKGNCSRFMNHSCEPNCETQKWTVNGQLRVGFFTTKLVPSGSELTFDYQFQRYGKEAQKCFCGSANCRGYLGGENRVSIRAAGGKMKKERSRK

H3K36me3 in A549 cells = experiment: In-Cell Western (ICW) assay of SETD2 inhibitors (A549 assay); format: cell-based, human
Method: In-Cell Western (ICW) Assay of SETD2 Inhibitors (A549 Assay)
Representative Compounds of the Disclosure were tested in the A549 assay according the following protocol.
1. Reagents and Consumables:
Prepare plates with compounds. Seed A549 cells to the plates with compounds, 4,000 cells/well, 50 μl/well. Put the plates at room temperature on a non-vibrating surface for 20 minutes before placing in the incubator. Incubate the plate at 37° C. incubator with CO2 for 3 days. Remove plate from incubator and bring to room temperature. Blot media out of the plate and add 50 μL of ice cold 100% methanol. Incubate 30 minutes at room temperature. Remove methanol by aspiration. Wash 3× with PBST. Add 50 μL of Blocking Buffer+0.1% Tween 20. Incubate 1 hour. Remove Blocking Buffer, wash 3× with PBST. Add 20 μL of H3K36me3 (1:1000 dilution). […] Incubate overnight at 4° C. Wash plate 5× with PBS-T. Add 20 μL of DRAQ5 (1:1000) and IRDye 800CW Goat anti-Rabbit IgG (1:500). Incubate for 1 hour in the dark. Wash plate 5× with PBS-T. Wash plate 3× with water. Dry by blotting on paper towel, then centrifuge plate upside down on a thin layer of paper towels for 1 minute at 1000 rpm to remove excess reagent. Leave plate uncovered for ˜10 minutes out of direct light before reading. Read on Licor instrument.
4. Licor Instrument Settings:
Preset: Plate; Resolution: 84 μm; Quality: low; Focus offset: 4.0; 700 channel intensity: 2; and 800 channel intensity: 3.

[1] = Homo sapiens, A549 cells, read-out: SETD2 A549
[2] = A549 cells, read-out: SETD2 A549

Compound	IC50 (SETD2(1434-1711)) [nM]	IC50 (H3K36me3 in A549 cells; [1]) [nM]	IC50 (H3K36me3 in A549 cells; [2]) [nM]	IC50 (H3K36me3 in A549 cells; Homo sapiens, A549, read-out: SETD2 A549) [nM]
Cc1ccc(F)c2cc(C(=O)Nc3cccc(-c4nnco4)c3)[nH]c12 [Cpd. No. 60, N-(3-(1,3,4-oxadiazol-2-yl)phenyl)-4-fluoro-7-methyl-1H-indole-2-carboxamide]	30	100		
Cc1ccc(F)c2cc(C(=O)Nc3cc(F)cc4cnccc34)[nH]c12 [Cpd. No. 82, 4-fluoro-N-(7-fluoroisoquinolin-5-yl)-7-methyl-1H-indole-2-carboxamide]	40	200		
Cc1cccnc1C(Cc1cnn(C)c1)NC(=O)c1cc2c(F)ccc(C)c2[nH]1 (stereo not drawn) [Cpd. No. 85, 4-fluoro-7-methyl-N-(2-(1-methyl-1H-pyrazol-4-yl)-1-(3-methylpyridin-2-yl)ethyl)-1H-indole-2-carboxamide]	40	200		
Cc1cc(Cn2ccnc2)cnc1C(NC(=O)c1cc2c(F)ccc(C)c2[nH]1)C1CC1 (stereo not drawn) [Cpd. No. 161, N-((5-((1H-imidazol-1-yl)methyl)-3-methylpyridin-2-yl)(cyclopropyl)methyl)-4-fluoro-7-methyl-1H-indole-2-carboxamide]	30	300		
Cc1ccc(F)c2cc(C(=O)Nc3ccnc(N4CCN(C)CC4)c3)[nH]c12 [Cpd. No. 340, 4-fluoro-7-methyl-N-(2-(4-methylpiperazin-1-yl)pyridin-4-yl)-1H-indole-2-carboxamide]	200			1700
Cc1ccc(F)c2cc(C(=O)NCC3(c4ccccc4N4CCN(C)CC4)CC3)[nH]c12 [Cpd. No. 392, 4-fluoro-7-methyl-N-((1-(2-(4-methylpiperazin-1-yl)phenyl)cyclopropyl)methyl)-1H-indole-2-carboxamide]	60	2000		
Cc1ccc(F)c2cc(C(=O)NC(c3nccc4ccccc34)C3CC3)[nH]c12 (stereo not drawn) [Cpd. No. 507, N-(cyclopropyl(isoquinolin-1-yl)methyl)-4-fluoro-7-methyl-1H-indole-2-carboxamide]	1100	15100		
Cc1ccc(F)c2cc(C(=O)Nc3cc(F)cc(N4CCOC(CCO)C4)c3)[nH]c12 (stereo not drawn) [compound 24]	20		60	
Cc1ccc(F)c2cc(C(=O)Nc3cccc(N4CCN5C(=O)CCC5C4)c3)[nH]c12 (stereo not drawn) [compound 27]	20		70	
Cc1ccc(F)c2cc(C(=O)Nc3cc(F)cc(N4CCC(N5CCn6ccnc6C5)C4)c3)[nH]c12 (stereo not drawn) [compound 29]	20		70	
CCC(=O)N1CCN(c2cccc(NC(=O)c3cc4c(F)ccc(C)c4[nH]3)c2)CC1 [compound 36]	30		90	
Cc1ccc(F)c2cc(C(=O)Nc3cccc(C4CCN5C(=O)CCC5C4)c3)[nH]c12 (stereo not drawn) [compound 37]	20		90	
Cc1ccc(F)c2cc(C(=O)Nc3cc(F)cc(N4CC5(CCN(CC(F)F)CC5)C4)c3)[nH]c12 [compound 40]	40		100	
Cc1ccc(F)c2cc(C(=O)Nc3cccc(N4CC5(CCN(CC(F)F)CC5)C4)c3)[nH]c12 [compound 41]	30		100	
CC(=O)N(C)C1CCCN(c2cccc(NC(=O)c3cc4c(F)ccc(C)c4[nH]3)c2)C1 (stereo not drawn) [compound 42]	20		100	
COCC(=O)N1CCN(c2cccc(NC(=O)c3cc4c(F)ccc(C)c4[nH]3)c2)CC1 [compound 44]	40	100		
CC(=O)N1CCC(c2cccc(NC(=O)c3cc4c(F)ccc(C)c4[nH]3)c2)CC1 [compound 45]	30	100		
Cc1ccc(F)c2cc(C(=O)Nc3ncc(C4CCN(C)CC4)n3C)[nH]c12 [compound 1159]			> 25000	
CC(=O)N1CCC2CN(C3CCCC(NC(=O)c4cc5c(F)ccc(C)c5[nH]4)C3)CC21 (stereo not drawn) [compound 1181]			> 2000	
CC(=O)N1CCC2CN(C3CCCC(NC(=O)c4cc5c(F)ccc(C)c5[nH]4)C3)CC21 (stereo not drawn) [compound 1183]			> 2000	
CC(=O)N1CCC2C1CCN2C1CCCC(NC(=O)c2cc3c(F)ccc(C)c3[nH]2)C1 (stereo not drawn) [compound 1184]			5	
CC(=O)N1CCC2C1CCN2C1CCCC(NC(=O)c2cc3c(F)ccc(C)c3[nH]2)C1 (stereo not drawn) [compound 1185]			70	
CC(=O)N1CCC2C1CCN2C1CCCC(NC(=O)c2cc3c(F)ccc(C)c3[nH]2)C1 (stereo not drawn) [compound 1186]			> 2000	
CC(=O)N1CCC2C1CCN2C1CCCC(NC(=O)c2cc3c(F)ccc(C)c3[nH]2)C1 (stereo not drawn) [compound 1187]			> 2000	

Further lines, with some results ahead:

IC50 (SETD2(1434-1711)) [nM]	IC50 (H3K36me3 in A549 cells; [1]) [nM]	IC50 (H3K36me3 in A549 cells; [2]) [nM]	Compound	IC50 (H3K36me3 in A549 cells; Homo sapiens, A549, read-out: SETD2 A549) [nM]
7	500		Cc1ccc(F)c2cc(C(=O)Nc3cccc4c3cnn4[C@H]3CC[C@H](N(C)C)CC3)[nH]c12 [Cpd. No. 213, N-(1-((1r,4r)-4-(dimethylamino)cyclohexyl)-1H-indazol-4-yl)-4-fluoro-7-methyl-1H-indole-2-carboxamide]	
5		30	Cc1ccc(F)c2cc(C(=O)Nc3cc(F)cc(N4CCC(N5CCN6C(=O)N(C)CC6C5)C4)c3)[nH]c12 (stereo not drawn) [compound 2]	
4		30	Cc1ccc(F)c2cc(C(=O)Nc3cc(F)cc(N4CCC(N(C)C)C4=O)c3)[nH]c12 (stereo not drawn) [compound 3]	
6		30	Cc1ccc(F)c2cc(C(=O)Nc3cc(F)cc(N4CCC(N5CCN(CC(=O)N(C)C)CC5)C4)c3)[nH]c12 (stereo not drawn) [compound 4]	
8		40	CC(=O)N1CCC2(CC1)CCN(c1cc(F)cc(NC(=O)c3cc4c(F)ccc(C)c4[nH]3)c1)C2 [compound 5]	
6		40	Cc1ccc(F)c2cc(C(=O)Nc3cc(F)cc(N4CCC(N5CCN(CC(N)=O)CC5)C4)c3)[nH]c12 (stereo not drawn) [compound 6]	
8		40	CC(=O)N1CCN(C2CCN(c3cc(F)cc(NC(=O)c4cc5c(F)ccc(C)c5[nH]4)c3)C2)CC1 (stereo not drawn) [compound 9]	
10		40	Cc1ccc(F)c2cc(C(=O)Nc3cc(F)cc(N4CCN(C5CC5)C(=O)C4)c3)[nH]c12 [compound 10]	
10		50	COCC(=O)N1CCN(c2cc(F)cc(NC(=O)c3cc4c(F)ccc(C)c4[nH]3)c2)CC1 [compound 12]	
10		50	CC(=O)N1CCC2C1CCN2c1cc(F)cc(NC(=O)c2cc3c(F)ccc(C)c3[nH]2)c1 (stereo not drawn) [compound 13]	
7		50	CC(=O)N1CCC2CN(c3cc(F)cc(NC(=O)c4cc5c(F)ccc(C)c5[nH]4)c3)CC21 (stereo not drawn) [compound 14]	
10		50	Cc1ccc(F)c2cc(C(=O)Nc3cc(F)cc(N4CCC(N5CCOC(CO)C5)C4)c3)[nH]c12 (stereo not drawn) [compound 16]	
9		50	Cc1ccc(F)c2cc(C(=O)Nc3cc(F)cc(N4CCC(N5CCN(C)C(=O)C5)C4)c3)[nH]c12 (stereo not drawn) [compound 17]	
8		60	Cc1ccc(F)c2cc(C(=O)Nc3cc(F)cc(N4CCC(N5CCCC5=O)C4)c3)[nH]c12 (stereo not drawn) [compound 18]	
10		60	CC(=O)N1CCC2(CC1)CN(c1cc(F)cc(NC(=O)c3cc4c(F)ccc(C)c4[nH]3)c1)C2 [compound 19]	
9	60		Cc1ccc(F)c2cc(C(=O)Nc3cc(F)cc(N4CCN(C)C(=O)C4)c3)[nH]c12 [compound 20]	
10		70	Cc1ccc(F)c2cc(C(=O)Nc3cc(F)cc(N4CCN(C(=O)N(C)C)CC4)c3)[nH]c12 [compound 25]	
10		70	Cc1ccc(F)c2cc(C(=O)Nc3cc(F)cc(C4CCN5C(=O)CCC5C4)c3)[nH]c12 (stereo not drawn) [compound 26]	
10	70		Cc1ccc(F)c2cc(C(=O)Nc3cc(F)cc(N4CCC5(CCNCC5(F)F)C4)c3)[nH]c12 (stereo not drawn) [compound 28]	
8		70	CC(=O)N1CCC2(CCN(c3cc(F)cc(NC(=O)c4cc5c(F)ccc(C)c5[nH]4)c3)CC2)C1 [compound 30]	
6	80		Cc1ccc(F)c2cc(C(=O)Nc3cc(F)cc([C@H]4CC[C@@H](N5CCOCC5)CC4)c3)[nH]c12 [compound 35]	
4		90	Cc1ccc(F)c2cc(C(=O)Nc3cc(F)cc(N4CCC(N5CCN(C(=O)CN(C)C)CC5)C4)c3)[nH]c12 (stereo not drawn) [compound 39]	
7		100	Cc1ccc(F)c2cc(C(=O)Nc3cc(F)cc(N4CCN(C(=O)C(C)N(C)C)CC4)c3)[nH]c12 (stereo not drawn) [compound 43]	
